Results on one molecule are retold here after US20250304705A1, “BIOTIN ORTHOGONAL STREPTAVIDIN SYSTEM” (UNIVERSITY OF UTAH RESEARCH FOUNDATION, priority 2022, published 2025).

Assay [1] concerns the target T1, L-SA (recombinant SA, Novus Biologicals) (Streptomyces avidinii, UniProt P22629).
T1 construct: purchased Novus Biologicals
Kind of assay: isothermal titration calorimetry (ITC), biotin enantiomer titrated into recombinant L-SA. In kind it is binding. The conditions noted are these: fit using Origin software. The method, then:
First, a control isothermal titration calorimetry (ITC) experiment was performed.

Assay [2] concerns D-SA. Kind of assay: binding of D-biotin to D-SA, by mirror-image symmetry from L-biotin/L-SA ITC. The settings on record: orthogonality, inferred by mirror-image symmetry. The text has this: As detailed herein, mirror-image SA and biotin (D-SA/L-biotin) offer an elegant solution to circumvent the limitations encountered with L-SA/D-biotin systems. For example, D-proteins are inert to L-proteases and therefore cannot be digested for MHC presentation to the immune system. […] Therefore, it is proposed that D-SA/L-biotin can be used as a biotin orthogonal streptaviding system (BOSS). Without wishing to be bound by theory, it is hypothesized that the orthogonality of BOSS, along with D-SA's low immunogenicity, will overcome the limitations of natural SA/biotin.
First, a control isothermal titration calorimetry (ITC) experiment was performed. […] This titration data was fit using Origin software to calculate binding stoichiometry (N=0.97±0.003 sites) and enthalpy (ΔH=−27.72±0.18 kcal/mol), as shown in FIG. 2A.

T1 sequence (P22629 37-163): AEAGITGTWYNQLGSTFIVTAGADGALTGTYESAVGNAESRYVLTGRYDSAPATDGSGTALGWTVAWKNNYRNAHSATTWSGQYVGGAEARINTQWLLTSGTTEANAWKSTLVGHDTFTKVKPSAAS

Regarding `O=C(O)CCCC[C@@H]1SC[C@@H]2NC(=O)N[C@@H]21` [D-biotin], the “enthalpy (ΔH)” value in assay [1] is -27.72 ± 0.18 kcal/mol. Further, the “binding to D-SA” value in assay [2] was “minimal binding”.
